Measured values published in patent US12409181B2, “Treatment for aortic aneurysms” (THE REGENTS OF THE UNIVERSITY OF CALIFORNIA, priority 2019, dated 2025).
“Also recorded” adds a separate entry of the source.

Experiments:
human aortic SMCs = experiment: Western blots (VASP phosphorylation, JNK activation) and OxyBlot protein oxidation in human SMCs; assay type: cell-based
Protocol: Western Blotting. Following anesthesia with ketamine (100 mg/kg) and xylazine (10 mg/kg) by intraperitoneal injection, mice were exsanguinated and perfused with ice-cold phosphate-buffered saline (PBS) containing protease inhibitor cocktail (Calbiochem #539131). Aortas were excised, cleaned from surrounding tissue, and snap-frozen in liquid nitrogen within 15 min of euthanasia. Frozen aortas were pulverized and sonicated (3×10 sec) in ice-cold RIPA buffer (50 mM NaCl, 50 mM Tris-HCl, pH 8, 1% NP-40, 0.1% SDS, 0.5% sodium deoxycholate) supplemented with 1 mM NaF, 1 mM β-glycerolphosphate, and protease inhibitor cocktail. Western blots were developed with primary antibodies specific for PKG1 (1:1000, Cell Signaling Technology; 3248, […] (1:1000, Cell Signaling Technology; 3114), GAPDH (1:1000, Cell Signaling Technology; 2118), β-actin (1:5000, Santa Cruz Biotechnology; 47778), and JNK-phospho-Thr^183/Tyr^185 (1:1000, Cell Signaling Technology; 9251). Blots were developed and visualized with enhanced chemiluminescence using LI-COR Odyssey (with ImageStudio, V5) or with film in the linear range of exposure (with densitometry scanning using ImageJ (V1.51). Protein carbonyl groups (aldehydes and ketones) were detected using the OxyBlot™ Protein Oxidation Detection Kit (Millipore EMD; S7150). Unprocessed scans of blots are provided in the Source Data file.
SMC Culture and Adenovirus Infection. Murine aortic SMCs were isolated from the aortas of 8-12 week old wild type and PKG1^RQ/+ mice and were cultured in Smooth Muscle Basal Media (SmBM) containing 20% FBS, pyruvate, HEPES, L-glutamine, penicillin/streptomycin and growth factors (SmBM Bullet kit; CC-4149 from Lonza), as previously described.^69 Two independent cell isolates from wild type and PKG1^RQ mice were used at passage one. Human primary aortic SMCs were purchased from Lifeline Cell Technology (Frederick, MD, FC-0015) and cultured in VascuLife Basal Medium supplemented with recombinant epidermal growth factor, insulin, and fibroblast growth factor-b, ascorbic acid, L-glutamine, 20% FBS, gentamycin, and amphotericin (Vasculife SMC LifeFactors kit; LS-1040 from Lifeline Technologies). Human SMCs were used at passages 3-6. Adenovirus was generated using the ViraPower Adenoviral Expression System (Thermo Fisher).^67 Human SMCs were infected with virus expressing wild type or mutant human PKG1α (containing the R177Q mutation); the MOI was 3-10 and titrated to produce wild type and mutant kinase at 2-3 fold the level of endogenous PKG1 at 72 h post infection. […] For knock-down of NOX2 and NOX4, SMCs were infected with adenovirus expressing shNOX2 or shNOX4 oligomers (downstream of the U6 promoter) at an MOI of 100; H2O2 production and NADPH oxidase activity assays were performed 48 h later (as described below).

wild type mice = experiment: Cobinamide treatment: effects and toxicity in mice; assay type: in vivo
Protocol: (§1) Randomization and Drug Treatment of Mice. At the time of weaning, male and female litter mates were separated and randomly assigned to new cages. At the age of 6 months (aging studies) or 10-14 weeks (TAC studies), matched cages containing mice born within a three week period were randomly assigned to treatment versus vehicle groups. For aging studies, some mice received 1 mM trihistidyl-cobinamine (Cbi) in the drinking water, starting from the age of 6 months until 12 months. For gene expression studies, mice were treated with 1 mM Cbi for one month only, from 11-12 months of age. For TAC studies, some mice received 1 mg/ml N-acetylcysteine (NAC) in the drinking water starting 4 weeks before until 2 weeks after the surgery. The drugs were dissolved freshly each week and filter-sterilized; fluid intake was monitored weekly. The Cbi dose was calculated to be 50 mg/kg/d, and the NAC dose was 500 mg/kg/d. Aquohydroxyl-cobinamide was synthesized from cobalamine by removal of the 5,6-dimethyl-benzimidazol ring; trihistidyl-cobinamide was obtained by adding three molar equivalents of L-histidine to the aquohydroxyl cobinamide.^63 Purity of the drug was >95% by high-pressure liquid chromatography.

Prkg1^RQ/+ mice [1] = experiment: Aortic gene expression by quantitative RT-PCR after Cbi treatment; assay type: in vivo; conditions: 12 month-old Prkg1^RQ/+ mice, 1 mM Cbi in drinking water for 1 month
Protocol: as §1
Quantitative RT-PCR. Aortas were dissected and snap-frozen as described above; they were pulverized and immersed in Trizol (Molecular Res. Center, TR118). Total RNA was isolated, reverse-transcribed using iScript cDNA synthesis kit (Bio-Rad), and PCR was performed using a MX3005P real-time PCR detection system with Brilliant II SYBR Green Mix (Agilent Technologies) as described.^67 All primers were intron-spanning (except for 18S rRNA), and were tested with serial cDNA dilutions. Relative changes in mRNA expression were analyzed using the comparative 2^−ΔΔCt method, with 18S rRNA and phosphoglycerate kinase-1 serving as internal controls.^68

PKG1^RQ = molecular target: T1, PKG1^RQ (Homo sapiens, UniProt Q13976, R177Q); experiment: Kinase activity of purified PKG1^RQ; assay type: biochemical; conditions: purified enzyme
T1 construct: FLAG (N); made in house; host or cells: transiently transfected 293T cells (ATCC, CRL3216)
T1 sequence (Q13976 1-671 R177Q): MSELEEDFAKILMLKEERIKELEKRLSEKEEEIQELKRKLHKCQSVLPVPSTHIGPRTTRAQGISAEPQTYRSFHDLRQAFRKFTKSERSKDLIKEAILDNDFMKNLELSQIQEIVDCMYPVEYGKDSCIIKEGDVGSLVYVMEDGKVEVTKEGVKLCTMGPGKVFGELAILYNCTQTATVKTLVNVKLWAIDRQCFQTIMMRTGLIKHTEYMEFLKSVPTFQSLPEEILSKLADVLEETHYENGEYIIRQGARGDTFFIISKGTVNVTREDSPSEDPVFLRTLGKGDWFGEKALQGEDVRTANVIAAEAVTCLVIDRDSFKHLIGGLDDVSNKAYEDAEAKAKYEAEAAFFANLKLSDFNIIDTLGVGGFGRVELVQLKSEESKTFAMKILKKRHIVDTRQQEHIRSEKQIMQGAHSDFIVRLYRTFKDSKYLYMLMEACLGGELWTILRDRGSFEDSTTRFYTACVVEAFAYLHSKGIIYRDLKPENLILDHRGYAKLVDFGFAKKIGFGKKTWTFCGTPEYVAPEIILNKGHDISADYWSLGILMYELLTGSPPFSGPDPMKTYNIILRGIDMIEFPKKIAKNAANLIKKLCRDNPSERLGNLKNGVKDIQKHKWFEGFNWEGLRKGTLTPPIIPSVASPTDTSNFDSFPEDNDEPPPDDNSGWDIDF
Protocol: PKG1 Purification and Activity Assays. Wild type and mutant PKG1^RQ were expressed with N-terminal FLAG epitope tags in transiently-transfected 293T cells (ATCC, CRL3216), purified with anti-FLAG beads and eluted with FLAG peptide, and kinase activity assays were performed.^41 Kinase activity in SMC and aortic extracts was measured using an optimized peptide in the presence of 1.25 μM protein kinase inhibitor peptide (PKI) to inhibit cAMP-dependent protein kinase.^65 Assays were performed with [γ-^32PO4]ATP (1.3 Ci/mmol; 50 μM) in the presence and absence of 3 μM cGMP, and were linear with time and protein concentration. In some assays, the PKG-specific inhibitory peptide DT2 was included at 10 μM.

Prkg1^RQ/+ mice [2] = experiment: Aging study: cobinamide in drinking water, Prkg1^RQ/+ mice; assay type: in vivo
[3] = Prkg1^RQ/+ mice, 1 mM Cbi in drinking water from age 6 to 12 months

Substance: trihistidyl-cobinamide [Cbi]
- H2O2-induced JNK activation (human aortic SMCs; human SMCs): decreased
- H2O2-induced protein oxidation (human aortic SMCs; human SMCs): decreased
- protein oxidation in PKG1^RQ-expressing cells (human aortic SMCs; human SMCs expressing PKG1^RQ): reduced protein oxidation
- serum homocysteine concentration (wild type mice; Cbi-treated mice): normal
- serum methylmalonic acid concentration (wild type mice; Cbi-treated mice): normal
- vitamin B12-dependent functions (wild type mice; Cbi-treated mice): did not affect
- toxicity (wild type mice; judged by normal weight, clinical appearance, blood counts, and liver and kidney function tests): no discernible toxicity
- effects in wild type mice (wild type mice; wild type mice, Cbi in drinking water): no significant effects
- Ctgf mRNA in aortas (Prkg1^RQ/+ mice [1]): reduced all five transcripts
- Hif1a mRNA in aortas (Prkg1^RQ/+ mice [1]): reaching levels similar to those observed in wild type mice
- Nox4 mRNA in aortas (Prkg1^RQ/+ mice [1]): reduced all five transcripts
- Tgfb1 mRNA in aortas (Prkg1^RQ/+ mice [1]): reduced all five transcripts
- Vegfa mRNA in aortas (Prkg1^RQ/+ mice [1]): reaching levels similar to those observed in wild type mice
- activity of purified PKG1^RQ (PKG1^RQ): no effect
- PKG activity in aortic extracts after treatment of the mice (Prkg1^RQ/+ mice [2]; Cbi-treated mice): nor did Cbi treatment of the mice affect PKG activity
- prevention of age-related aortic pathology, including aortic dilation (Prkg1^RQ/+ mice [2]; Prkg1^RQ/+ mice): highly effective
- SMC apoptosis in aortas (Prkg1^RQ/+ mice [2]; [3]): reduced oxidative stress markers and SMC apoptosis in aortas of Prkg1^RQ/+ mice to values in WT mice
- SMC loss (Prkg1^RQ/+ mice [2]; [3]): completely prevented
- elastin fiber breaks (Prkg1^RQ/+ mice [2]; [3]): reduced elastin fiber breaks and media collagen content to levels in WT mice
- media collagen content (Prkg1^RQ/+ mice [2]; [3]): reduced elastin fiber breaks and media collagen content to levels in WT mice
- oxidative stress markers in aortas (Prkg1^RQ/+ mice [2]; [3]): reduced oxidative stress markers and SMC apoptosis in aortas of Prkg1^RQ/+ mice to values in WT mice; also recorded: reduced oxidative stress markers in the aorta
- aortic dilation (Prkg1^RQ/+ mice [2]; Prkg1^RQ/+ mice, 1 mM Cbi in drinking water from age 6 to 12 months, ultrasound): completely prevented
- amount of Cys^43-oxidized, cross-linked PKG1 dimer in aortas (Prkg1^RQ/+ mice [2]; wild type and Prkg1^RQ/+ mice): no effect
